Paper PMC8049364, “Quantification of Macrophage-Driven Inflammation During Myocardial Infarction with ^18F-LW223, a Novel TSPO Radiotracer with Binding Independent of the rs6971 Human Polymorphism” (Journal of Nuclear Medicine, 2021)

Biological target: T1, TSPO (Rattus norvegicus, UniProt P16257)
T1 construct: Thirty-three adult male Sprague–Dawley rats; from tissue; host or cells: living adult male Sprague-Dawley rats; heart, LV anterior wall, lung and brain VOIs
Experiment: PET/CT imaging and kinetic modelling in rat MI model, day 7
Format: in vivo
Design: k4 (2T analysis), mean / K1 (2T analysis), mean / k2 (2T analysis), mean / k3 (2T analysis), mean: unit not given here
Settings: for K1 (2T analysis), mean / VT (2T analysis), mean / k2 (2T analysis), mean / k3 (2T analysis), mean / k3/k4 (2T analysis), mean / k4 (2T analysis), mean: MI n = 9
Protocol: For MI studies, anesthesia was induced and maintained using isoflurane (0.5%–3% in oxygen, 1 L/min) before buprenorphine (0.05 mg/kg; Alstoe Ltd.) was administered preoperatively for analgesia. Tracheal intubation was achieved under direct vision, and ventilation was maintained with a rodent ventilator (model 683 [Harvard Apparatus]; tidal volume, 2.5 cm^3; respiratory rate, 60/min). MI was induced as we have previously described ([18]), and further details can be found in the supplemental materials. Animals were imaged within 1 d of day 7 after MI, referred to as day 7 throughout the article.
Thirty-two PET scans were performed with ^18F-LW223 (17.8 ± 1.5 MBq, intravenous bolus, mean ± SEM). Naïve and MI rat scans were acquired immediately after intravenous bolus injection of ^18F-LW223. […] Dosimetry studies were conducted using mice and 240-min PET scans.
Reconstructed scans were imported into PMOD, version 3.8 (PMOD Technologies). Volumes of interest (VOIs) were manually drawn around the brain, heart, and lung using CT images. To sample the infarct area (or an equivalent area in naïve hearts), averaged PET images (0–120 min) were used to place 3 spheric VOIs at the center of the infarct territory within the ventricular wall (1.5 mm^3). […] Time–activity curves were generated, and SUVs were calculated as concentration in the VOI divided by injected dose divided by animal weight. Kinetic modeling was performed using the 2-tissue-compartment model to estimate the kinetic rate constants K1–k4 and the total volume of distribution (VT) in different tissues. Blood volume fraction (VB) was not modeled in this study. Two-tissue-compartment modeling was selected as the preferred model on the basis of a comparison of goodness and robustness of fitting versus several other models (Supplemental Fig. 3; Supplemental Table 2). The binding potential relative to nondisplaceable volume (BPND) was defined as k3/k4 ([19]). The transfer-corrected BPND, termed BPTC, was formulated as follows:Eq. 1 BPTC=k3/k4÷K1, […]
where k3 is the radiotracer association rate with specific binding, k4 is the dissociation rate constant of target ligand, and K1 is the rate constant for transfer from arterial plasma to tissues. When tissue blood flow is impaired, such as after MI, K1→blood flow, as per the Renkin–Crone equation:Eq. 2 K1=F×E=F (1−e^− PS/F), […]
Invasive Input Function Measurement
Polyethylene catheters (PE50) filled with heparinized saline (20 IU/mL) were inserted into the left femoral artery and vein with the help of a stereomicroscope and securely fastened with ligatures (6-0 silk thread). Catheters were held in place with […]
Rat Myocardial Infarction Procedure
Briefly, the skin was incised at the level of the left third and fourth ribs where the pectoral muscles were divided and retracted. Left lateral thoracotomy was then performed. With minimal handling, the pericardium was ruptured and the heart gently exteriorized from the thorax, and a nonabsorbable 5-0 ligature was placed around the left anterior descending coronary artery just above the bifurcation of the first diagonal and maneuvered back into position. Before wound closure, a drain was inserted to assist with removal of air and fluid from the thorax. Once removed, the wound was then closed in three layers. Animals were recovered and extubated once spontaneous ventilation was established, housed at 30 °C for 24 hours and given sterile sodium chloride 0.9% 0.01 mL/g fluid therapy subcutaneously in addition to another dose of Buprenorphine. After 24 hours, normal housing conditions were resumed.
Radiometabolite Blood and Tissue Processing and Analysis
All blood samples were 1 mL each and manually collected from different animals to generate a population curve, in order to respect total blood volume limits for terminal arterial blood collections in rats. Following blood and tissue collection, all samples were […]

Question: What does the source list for `CC[C@@H](C)N(C)C(=O)c1nc2ccccc2c(-c2ccccc2)c1C[18F]` [^18F-LW223]?
Answer: K1 (2T analysis), mean (Brain): 0.17; VT (2T analysis), mean (Brain): 2.21; k2 (2T analysis), mean (Brain): 0.19; k3 (2T analysis), mean (Brain): 0.023; k3/k4 (2T analysis), mean (Brain): 1.42; k4 (2T analysis), mean (Brain): 0.02; K1 (2T analysis), mean (Global Heart): 0.58; VT (2T analysis), mean (Global Heart): 12.57; k2 (2T analysis), mean (Global Heart): 0.36; k3 (2T analysis), mean (Global Heart): 0.04; k3/k4 (2T analysis), mean (Global Heart): 6.62; k4 (2T analysis), mean (Global Heart): 0.01; K1 (2T analysis), mean (LV Anterior Wall): 0.25; VT (2T analysis), mean (LV Anterior Wall): 13.62; k2 (2T analysis), mean (LV Anterior Wall): 0.18; k3 (2T analysis), mean (LV Anterior Wall): 0.025; k3/k4 (2T analysis), mean (LV Anterior Wall): 7.92; k4 (2T analysis), mean (LV Anterior Wall): 0.01; K1 (2T analysis), mean (Lung): 1.08; VT (2T analysis), mean (Lung): 10.43; k2 (2T analysis), mean (Lung): 0.39; k3 (2T analysis), mean (Lung): 0.046; k3/k4 (2T analysis), mean (Lung): 2.49; k4 (2T analysis), mean (Lung): 0.02; BPTC (MI cohort, infarct territory of anterior wall, 7 d after MI): 32.7 ± 5.0 cm^3/mL/min; reduction of K1 in LV anterior wall, MI vs naïve (rat, in vivo): 3.6 fold; reduction of k2 in LV anterior wall, MI vs naïve (rat, in vivo): 1.4 fold
